# Source: patent US20130131321A1, “LIGANDS FOR ANTIBODY AND Fc-FUSION PROTEIN PURIFICATION BY AFFINITY CHROMATOGRAPHY” (GRAFFINITY PHARMACEUTICALS GMBH, priority 2010, published 2013)
# Experiments:
# [1] = test system: host cell proteins (HCP); assay: Microtiter plate chromatography of resins, host cell proteins (bound); type: binding, CHO; conditions: host cell proteins
# [2] = test system: rabbit poly-IgGs; assay: Microtiter plate chromatography of resins, rabbit poly-IgG; type: binding
# Description: Resins were assessed in packed mode by microtiter plate chromatography. For each column, approximately 30 μl of resin were transferred to a 384-well filter plate and sealed with appropriate top frits.
# Columns were equilibrated with 6.7 column volumes (cv) of phosphate buffered saline (0.15 M NaCl, 20 mM sodium phosphate, pH 7.3; PBS) prior to injection. Either 3.3 cv of whole IgGs dissolved at 0.75 mg ml^−1, Fab or Fc fragments dissolved at 0.25 mg ml^−1 (all three in PBS) or host cell proteins (HCP) were injected onto columns. Antibody fragments of Bevacizumab (Fab and Fc) were prepared by cleavage of whole IgG with papain protease (3) according to the protocol of the manufacturer. […] Volumes transferred were spun through columns at 50 g for 1-2 min. During injection of samples, acceleration was reduced to 10 g and centrifugation time increased to 5-10 min. Effluent fractions were collected in 384-well plates and concentrations of protein analyzed by Bradford assay. Protein masses mi, mft and me (see below) were calculated as the product of fraction volume and measured protein concentration.
# The fraction of ‘bound’ protein was calculated as the difference between the total mass of protein injected mi and the mass of protein detected in the flowthrough mft, divided by the total mass of protein injected.
# The ‘yield’ of protein was calculated as the mass of protein eluted me, divided by the mass of protein injected mi.
# the fraction of ‘bound’ protein and the ‘yield’ of protein were calculated for each resin based on data for whole IgG-antibodies. In the case of Bevacizumab fragments and host cell proteins, only the fraction of ‘bound’ protein is given. Selectivity of resins was calculated from data for Bevacizumab Whole IgG and host cell proteins. Due to limited experimental precision, selectivity was truncated beyond values of 10.
# [3] = Alkaline stability in sodium hydroxide, LC-MS; type: physicochemical; conditions: 25° C., 8 days
# Description: It was either treated with 0.1 M or 0.5 M sodium hydroxide at 25° C. Hydrolysis was monitored by LC-MS analysis.
# [4] = target: T1, Bevacizumab (Homo sapiens, UniProt P01857); assay: Dynamic and equilibrium binding capacity by column chromatography; parameters: species or system humanized; conditions: 1 mg ml^−1 Bevacizumab
# T1 construct: fused on or other part: humanised anti-VEGF-A VH domain N-terminal of the gamma-1 constant region (engineered, no UniProt entry)
# Description: Dynamic binding capacities were determined by column chromatography with purified Bevacizumab. Resins were packed into analytical columns of 25 mm length and 3 mm inner diameter. Columns were fed with 1 mg ml^−1 antibody in phosphate-buffered saline (150 mM NaCl, 20 mM phosphate buffer, pH 7.3) at constant flow rate, while the concentration of antibody in effluents was monitored online via absorbance at 280 nm. Antibody was loaded until effluent concentration reached at least 10% of the feed concentration. Dynamic binding capacities were determined at a flow rate of 50 cm h^−1, corresponding to 3 min empty column residence time. Equilibrium capacities were also determined at a flow rate of 50 cm h^−1 by loading until complete breakthrough of antibody. […]
# ‘Dynamic capacity’ was defined as the amount of antibody that can be injected onto a column at constant flow rate until the effluent concentration reaches 10% of the feed concentration. It was calculated as the time t0.1 after which 10% breakthrough occurred, multiplied by the flow rate F and feed concentration cf.
# Equilibrium capacity is defined as the maximum amount of antibody that binds to a column for a given feed stream concentration. It was calculated by evaluation of the following integral
# The integral was evaluated numerically. […]
# [5] = test system: Tocilicumab; assay: SPR screening of chemical microarrays, Tocilizumab; type: binding, humanized; conditions: chemical microarray, immobilized ligand
# Excerpt: Graffinity has developed high density chemical microarrays comprising thousands of small molecules immobilized onto gold chips. The arrays are constructed using maleimide-thiol coupling chemistry in combination with high density pintool spotting. For the construction, glass plates are microstructured by photolithographical methods in order to define up to 9,216 sensor fields per array. A subsequently applied gold coating provides the basis for the SPR effect and enables the formation of a binary, mixed self assembled monolayer (SAM) of two different thiols. […]
# Surface plasmons are collective oscillations of electrons at a metal surface which can be resonantly excited by polarized light of appropriate wavelength and incidence angle. […] Processes which alter the local refractive index in close proximity to the metal surface (such as antibody binding to the immobilized ligands) can therefore be monitored sensitively. […] While scanning over a range of wavelengths covering the SPR resonance conditions, reflection images are recorded stepwise. […]
# The experimental results of the microarray screening campaigns were analyzed by manual hit selection using in-house developed software routines as well as by an in-depth data analysis by commercially available data mining tools. […]
compound,measurement,setting,value
"COc1ccc(NC(=O)c2cc(-c3ccco3)n(C)n2)cc1C(=O)NCCCN [Ligand L1, 5-[5-(2-Furyl)-1-methylpyrazol-3-yl]carboxamido-2-methoxybenzoic acid N-(3-aminopropyl)amide]",HCP Bound (%),[1],30%
same,r-poly-IgG Bound (%),[2],100%
same,r-poly-IgG Yield (%),[2],100%
same,binding of rabbit poly-IgGs,"[2]; microtiter plate chromatography, PBS",efficient binding
same,degradation (alkaline stability),[3]; 0.1 M NaOH,no degradation
same,half-life,"[3]; 0.5 M sodium hydroxide solution, 0.5 M NaOH",12 days
same,Dynamic Capacity,"[4]; 50 cm h^−1, 10% breakthrough",20.2 mg per ml of resin
same,Equilibrium Capacity,"[4]; 50 cm h^−1, complete breakthrough",25.7 mg per ml of resin
same,SPR binding to full length Tocilicumab,[5],clearly bound
